From the Kinase Knowledgebase extract (Sharma et al. 2016)
pIC50: −log10 of the molar value.

Columns and labels:
[1] = target: PIK3CA (human) (UniProt P42336); experiment: Assessment of PIK3CA Kinase Activity
[2] = target: PIK3CG (human) (UniProt P48736); experiment: Assessment of PIK3CG Kinase Activity
PIK3CG (human), sequence (P48736 whole entry, looked up): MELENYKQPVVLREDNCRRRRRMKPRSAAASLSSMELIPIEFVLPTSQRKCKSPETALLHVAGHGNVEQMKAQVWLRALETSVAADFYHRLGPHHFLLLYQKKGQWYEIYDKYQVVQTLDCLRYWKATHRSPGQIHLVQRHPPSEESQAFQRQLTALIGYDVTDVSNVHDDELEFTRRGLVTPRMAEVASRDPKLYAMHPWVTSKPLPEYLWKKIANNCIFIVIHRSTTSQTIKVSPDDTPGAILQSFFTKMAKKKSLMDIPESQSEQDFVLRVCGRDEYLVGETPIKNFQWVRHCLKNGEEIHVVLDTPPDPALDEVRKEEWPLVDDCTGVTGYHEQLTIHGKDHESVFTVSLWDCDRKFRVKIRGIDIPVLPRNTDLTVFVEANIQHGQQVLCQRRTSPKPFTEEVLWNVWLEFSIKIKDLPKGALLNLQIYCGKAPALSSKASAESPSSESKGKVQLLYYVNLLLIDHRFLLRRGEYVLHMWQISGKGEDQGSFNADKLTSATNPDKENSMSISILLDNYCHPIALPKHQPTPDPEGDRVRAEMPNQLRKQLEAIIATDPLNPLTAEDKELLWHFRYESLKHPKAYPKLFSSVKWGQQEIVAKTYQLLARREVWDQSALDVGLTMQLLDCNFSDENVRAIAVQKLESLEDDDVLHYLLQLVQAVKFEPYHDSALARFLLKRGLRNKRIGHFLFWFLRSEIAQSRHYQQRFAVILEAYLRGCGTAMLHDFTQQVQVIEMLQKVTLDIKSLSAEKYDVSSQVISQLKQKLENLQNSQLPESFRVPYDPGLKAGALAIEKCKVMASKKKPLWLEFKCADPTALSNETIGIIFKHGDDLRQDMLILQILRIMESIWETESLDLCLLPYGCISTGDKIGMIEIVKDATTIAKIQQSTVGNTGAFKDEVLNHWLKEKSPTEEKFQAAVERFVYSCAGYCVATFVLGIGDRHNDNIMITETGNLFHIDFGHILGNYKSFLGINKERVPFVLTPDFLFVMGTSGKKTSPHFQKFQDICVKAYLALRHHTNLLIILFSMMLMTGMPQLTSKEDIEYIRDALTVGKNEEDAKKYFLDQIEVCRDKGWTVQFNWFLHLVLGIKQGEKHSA

PIK3CA (human), sequence (P42336 whole entry, looked up): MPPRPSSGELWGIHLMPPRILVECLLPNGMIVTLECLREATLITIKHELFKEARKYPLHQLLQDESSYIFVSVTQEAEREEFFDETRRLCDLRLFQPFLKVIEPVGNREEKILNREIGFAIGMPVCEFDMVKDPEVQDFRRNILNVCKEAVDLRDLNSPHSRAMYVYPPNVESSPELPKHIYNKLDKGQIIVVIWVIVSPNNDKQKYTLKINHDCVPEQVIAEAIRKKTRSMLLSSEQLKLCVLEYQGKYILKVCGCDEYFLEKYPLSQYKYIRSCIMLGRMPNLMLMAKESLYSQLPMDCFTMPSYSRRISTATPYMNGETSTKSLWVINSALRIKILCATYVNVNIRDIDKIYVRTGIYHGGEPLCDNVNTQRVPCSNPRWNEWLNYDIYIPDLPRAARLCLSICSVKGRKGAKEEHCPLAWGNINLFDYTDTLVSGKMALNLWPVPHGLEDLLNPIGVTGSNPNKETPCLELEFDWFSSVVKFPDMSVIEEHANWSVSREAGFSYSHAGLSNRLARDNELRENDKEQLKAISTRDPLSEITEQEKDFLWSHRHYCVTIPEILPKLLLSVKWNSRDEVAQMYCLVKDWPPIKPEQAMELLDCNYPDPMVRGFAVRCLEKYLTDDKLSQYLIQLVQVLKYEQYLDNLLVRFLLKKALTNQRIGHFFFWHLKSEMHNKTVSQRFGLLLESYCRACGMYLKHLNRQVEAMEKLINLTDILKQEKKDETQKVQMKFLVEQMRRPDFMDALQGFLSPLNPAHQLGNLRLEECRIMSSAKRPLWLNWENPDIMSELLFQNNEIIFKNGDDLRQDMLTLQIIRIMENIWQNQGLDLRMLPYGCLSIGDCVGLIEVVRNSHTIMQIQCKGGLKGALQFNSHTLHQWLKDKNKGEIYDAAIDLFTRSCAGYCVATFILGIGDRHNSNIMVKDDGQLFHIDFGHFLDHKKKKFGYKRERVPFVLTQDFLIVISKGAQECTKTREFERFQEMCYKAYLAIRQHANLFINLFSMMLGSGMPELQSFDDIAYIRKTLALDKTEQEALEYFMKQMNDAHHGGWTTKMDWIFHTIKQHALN

Compound	pIC50 [1]	pIC50 [2]
CN(C)C1CCN(C(=O)c2ccc(NC(=O)Nc3ccc(-c4nc5c(c(N6CC7CCC(C6)O7)n4)CCN(S(C)(=O)=O)C5)cc3)cc2)CC1	5.57	< 5.00
CNC(=O)Nc1ccc(-c2nc3c(c(N4C5CCC4COC5)n2)CCN(C)C3)cc1	5.36	< 5.00
CNC(=O)Nc1ccc(-c2nc3c(c(N4CC5CCC(C4)O5)n2)CCN(S(=O)(=O)c2ccccc2)C3)cc1		6.69
CNC(=O)Nc1ccc(-c2nc3c(c(N4CC5CCC(C4)O5)n2)CCN(C(=O)c2ccccc2F)C3)cc1		6.44
CC(C)N1CCc2c(nc(-c3ccc(NC(=O)Nc4ccncc4)cc3)nc2N2C3CCC2COC3)C1	5.61	
CNC(=O)Nc1ccc(-c2nc3c(c(N4CC5CCC(C4)O5)n2)CCNC3)cc1	5.57	< 5.00
CNC(=O)Nc1ccc(-c2nc3c(c(N4CC5CCC(C4)O5)n2)CCN(S(=O)(=O)c2ccc(C#N)cc2)C3)cc1		5.40
CNC(=O)Nc1ccc(-c2nc3c(c(N4CC5CCC(C4)O5)n2)CCN(C(=O)COC)C3)cc1		6.08
CNC(=O)Nc1ccc(-c2nc3c(c(N4CC5CCC(C4)O5)n2)CCN(C(=O)c2ccc(C(C)(C)C)cc2)C3)cc1		5.47
CCCCNC(=O)N1CCc2c(nc(-c3ccc(NC(=O)NC)cc3)nc2N2CC3CCC(C2)O3)C1		6.43
CCN1CCc2c(nc(-c3ccc(NC(=O)NC4CC4)cc3)nc2N2C3CCC2COC3)C1	5.31	
CCCCC(CC)C(=O)N1CCc2c(nc(-c3ccc(NC(=O)NC)cc3)nc2N2CC3CCC(C2)O3)C1 (stereo unspecified)		6.57
CNC(=O)Nc1ccc(-c2nc3c(c(N4CC5CCC(C4)O5)n2)CCN(C(=O)CCC2CCCC2)C3)cc1		5.98
CNC(=O)Nc1ccc(-c2nc3c(c(N4CC5CCC(C4)O5)n2)CCN(C(=O)NC2CCCCC2)C3)cc1		6.22
CCCCCCC(=O)N1CCc2c(nc(-c3ccc(NC(=O)NC)cc3)nc2N2CC3CCC(C2)O3)C1		6.02
CNC(=O)Nc1ccc(-c2nc3c(c(N4CC5CCC(C4)O5)n2)CCN(C)C3)cc1	5.48	< 5.00
CNC(=O)Nc1ccc(-c2nc3c(c(N4CC5CCC(C4)O5)n2)CCN(C(=O)NC(C)(C)C)C3)cc1		6.43

Compound	pIC50 [1]	pIC50 [2]
CN1CCc2c(nc(-c3ccc(NC(=O)Nc4ccncc4)cc3)nc2N2C3CCC2COC3)C1	5.56	
CNC(=O)Nc1ccc(-c2nc3c(c(N4CC5CCC(C4)O5)n2)CCN(S(=O)(=O)c2ccc(F)cc2)C3)cc1		6.22
CC(C)N1CCc2c(nc(-c3ccc(NC(=O)Nc4ccncc4)cc3)nc2N2CC3CCC(C2)O3)C1	5.69	
CCN1CCc2c(nc(-c3ccc(NC(=O)Nc4ccc(C(=O)O)cc4)cc3)nc2N2C3CCC2COC3)C1	5.38	
CNC(=O)Nc1ccc(-c2nc3c(c(N4CC5CCC(C4)O5)n2)CCN(S(=O)(=O)c2ccc(Cl)cc2)C3)cc1		5.51
CNC(=O)Nc1ccc(-c2nc3c(c(N4CC5CCC(C4)O5)n2)CCN(C(=O)C(C)(C)C)C3)cc1		6.52
CCCCCCNC(=O)N1CCc2c(nc(-c3ccc(NC(=O)NC)cc3)nc2N2CC3CCC(C2)O3)C1		6.71
C=CCNC(=O)N1CCc2c(nc(-c3ccc(NC(=O)NC)cc3)nc2N2CC3CCC(C2)O3)C1		6.43
CNC(=O)Nc1ccc(-c2nc3c(c(N4CC5CCC(C4)O5)n2)CCN(C(=O)c2c(F)cccc2F)C3)cc1		6.52
CNC(=O)Nc1ccc(-c2nc3c(c(N4CC5CCC(C4)O5)n2)CCN(S(=O)(=O)N(C)C)C3)cc1		6.72
CCN1CCc2c(nc(-c3ccc(NC(=O)NCCF)cc3)nc2N2C3CCC2COC3)C1	5.24	
CCCCC(=O)N1CCc2c(nc(-c3ccc(NC(=O)NC)cc3)nc2N2CC3CCC(C2)O3)C1		6.26
CNC(=O)Nc1ccc(-c2nc3c(c(N4CC5CCC(C4)O5)n2)CCN(C(=O)c2ccccc2OC)C3)cc1		6.05
CCN1CCc2c(nc(-c3ccc(NC(=O)Nc4ccc(C(F)(F)F)cc4)cc3)nc2N2C3CCC2COC3)C1	5.52	
CCN1CCc2c(nc(-c3ccc(NC(=O)Nc4ccc(N5CCN(C)CC5)cc4)cc3)nc2N2C3CCC2COC3)C1	5.72	
CCCCOC(=O)N1CCc2c(nc(-c3ccc(NC(=O)NC)cc3)nc2N2CC3CCC(C2)O3)C1		6.43
CNC(=O)Nc1ccc(-c2nc3c(c(N4CC5CCC(C4)O5)n2)CCN(C(=O)OCC(C)C)C3)cc1		6.46

The next lines start with the values.

pIC50 [1]	pIC50 [2]	Compound
5.77		O=C(Nc1ccncc1)Nc1ccc(-c2nc3c(c(N4C5CCC4COC5)n2)CCN(CC(F)(F)F)C3)cc1
5.88	< 5.00	CN(C)C1CCN(C(=O)c2ccc(NC(=O)Nc3ccc(-c4nc5c(c(N6C7CCC6COC7)n4)CCN(S(C)(=O)=O)C5)cc3)cc2)CC1
6.28		CCN1CCc2c(nc(-c3ccc(NC(=O)Nc4ccc(C(=O)NC(C)C)cc4)cc3)nc2N2C3CCC2COC3)C1
8.46	7.36	CS(=O)(=O)N1CCc2c(nc(-c3ccc(NC(=O)Nc4cccnc4)cc3)nc2N2CCOCC2)C1
6.48		O=C(Nc1ccncc1)Nc1ccc(-c2nc3c(c(N4CC5CCC(C4)O5)n2)CCN(CCF)C3)cc1
6.34		CC(C)(C)OC(=O)N1CCc2c(nc(-c3ccc(NC(=O)Nc4ccncc4)cc3)nc2N2CC3CCC(C2)O3)C1
6.09		CN(C)CC(=O)N1CCc2c(nc(-c3ccc(NC(=O)Nc4ccncc4)cc3)nc2N2C3CCC2COC3)C1
6.54	5.14	CNC(=O)Nc1ccc(-c2nc3c(c(N4C5CCC4COC5)n2)CNC3)cc1
5.91		CCN1CCc2c(nc(-c3ccc(NC(=O)Nc4ccc(OCCN(C)C)cc4)cc3)nc2N2C3CCC2COC3)C1
5.89		CCN1CCc2c(nc(-c3ccc(NC(=O)Nc4ccc(CN5CCN(C)CC5)cc4)cc3)nc2N2C3CCC2COC3)C1
6.05		CCN1CCc2c(nc(-c3ccc(NC(=O)Nc4ccc(CN(C)C)cc4)cc3)nc2N2C3CCC2COC3)C1
7.17	6.24	CN(C)C1CCN(C(=O)c2ccc(NC(=O)Nc3ccc(-c4nc5c(c(N6C7CCC6COC7)n4)CN(S(C)(=O)=O)C5)cc3)cc2)CC1
6.93	5.40	CS(=O)(=O)N1CCc2c(nc(-c3ccc(NC(=O)Nc4cccnc4)cc3)nc2N2C3CCC2COC3)C1
6.49	5.43	CN(C)C1CCN(C(=O)c2ccc(NC(=O)Nc3ccc(-c4nc5c(c(N6C7CCC6COC7)n4)CCNC5)cc3)cc2)CC1
6.82		CCN1CCc2c(nc(-c3ccc(NC(=O)Nc4ccncc4)cc3)nc2N2CC3CCC(C2)O3)C1
7.35	6.11	CS(=O)(=O)N1Cc2nc(-c3ccc(NC(=O)Nc4cccnc4)cc3)nc(N3CCOCC3)c2C1
8.40	7.15	CNC(=O)Nc1ccc(-c2nc3c(c(N4C5CCC4COC5)n2)CN(S(C)(=O)=O)C3)cc1
6.26		CCN1CCc2c(nc(-c3ccc(NC(=O)Nc4ccc(C(=O)N(C)C)cc4)cc3)nc2N2C3CCC2COC3)C1
6.48	< 5.00	CS(=O)(=O)N1Cc2nc(-c3ccc(NC(=O)Nc4cccnc4)cc3)nc(N3CC4CCC(C3)O4)c2C1
9.00	8.10	CN(C)C1CCN(C(=O)c2ccc(NC(=O)Nc3ccc(-c4nc5c(c(N6CCOCC6)n4)CN(S(C)(=O)=O)C5)cc3)cc2)CC1
5.73		O=C(Nc1ccncc1)Nc1ccc(-c2nc3c(c(N4C5CCC4COC5)n2)CC[N+](CCF)(CCF)C3)cc1
7.41	5.47	CNC(=O)Nc1ccc(-c2nc3c(c(N4CC5CCC(C4)O5)n2)CNC3)cc1

pIC50 [1]	pIC50 [2]	Compound
6.50	5.51	CN(C)C1CCN(C(=O)c2ccc(NC(=O)Nc3ccc(-c4nc5c(c(N6CCOCC6)n4)CCN(S(C)(=O)=O)C5)cc3)cc2)CC1
5.87		CN1CCN(c2ccc(NC(=O)Nc3ccc(-c4nc5c(c(N6C7CCC6COC7)n4)CCN(CC(F)(F)F)C5)cc3)cc2)CC1
8.05	7.13	CN(C)C1CCN(C(=O)c2ccc(NC(=O)Nc3ccc(-c4nc5c(c(N6CCOCC6)n4)CNC5)cc3)cc2)CC1
8.22	6.94	CNC(=O)Nc1ccc(-c2nc3c(c(N4CC5CCC(C4)O5)n2)CN(S(C)(=O)=O)C3)cc1
6.96	< 5.00	CN(C)C1CCN(C(=O)c2ccc(NC(=O)Nc3ccc(-c4nc5c(c(N6CC7CCC(C6)O7)n4)CNC5)cc3)cc2)CC1
6.06		CCN1CCc2c(nc(-c3ccc(NC(=O)Nc4ccc(C(=O)NC)cc4)cc3)nc2N2C3CCC2COC3)C1
6.95	5.86	CN1CCc2c(nc(-c3ccc(NC(=O)Nc4cccnc4)cc3)nc2N2CCOCC2)C1
5.95	5.40	CN(C)C1CCN(C(=O)c2ccc(NC(=O)Nc3ccc(-c4nc5c(c(N6CC7CCC(C6)O7)n4)CCNC5)cc3)cc2)CC1
5.89		CCN1CCc2c(nc(-c3ccc(NC(=O)Nc4ccc(C(=O)OC)cc4)cc3)nc2N2C3CCC2COC3)C1
6.11	4.85	O=C(Nc1ccc(-c2nc3c(c(N4CC5CCC(C4)O5)n2)CCNC3)cc1)Nc1cccnc1
6.66		CCN1CCc2c(nc(-c3ccc(NC(=O)Nc4ccc(C(=O)N5CCCC5)cc4)cc3)nc2N2C3CCC2COC3)C1
7.60	6.08	O=C(Nc1ccc(-c2nc3c(c(N4C5CCC4COC5)n2)CNC3)cc1)Nc1cccnc1
6.52	< 5.00	CN(C)C1CCN(C(=O)c2ccc(NC(=O)Nc3ccc(-c4nc5c(c(N6C7CCC6COC7)n4)CNC5)cc3)cc2)CC1
6.04		CCN1CCc2c(nc(-c3ccc(NC(=O)Nc4ccccc4)cc3)nc2N2C3CCC2COC3)C1
5.78		CCN1CCc2c(nc(-c3ccc(NC(=O)Nc4ccc(C#N)cc4)cc3)nc2N2C3CCC2COC3)C1
5.99		CCN1CCc2c(nc(-c3ccc(NC(=O)Nc4ccc(C(N)=O)cc4)cc3)nc2N2C3CCC2COC3)C1
7.00		COCCN1CCc2c(nc(-c3ccc(NC(=O)Nc4ccncc4)cc3)nc2N2CC3CCC(C2)O3)C1
6.13		CCN1CCc2c(nc(-c3ccc(NC(=O)Nc4ccc(CN5CCCC5)cc4)cc3)nc2N2C3CCC2COC3)C1
6.42		COC(=O)N1CCc2c(nc(-c3ccc(NC(=O)Nc4ccncc4)cc3)nc2N2C3CCC2COC3)C1
5.97		CCN1CCc2c(nc(-c3ccc(NC(=O)Nc4ccc(N5CCC(N(C)C)CC5)cc4)cc3)nc2N2C3CCC2COC3)C1
6.68		CCN1CCc2c(nc(-c3ccc(NC(=O)Nc4ccc(C(=O)N5CCN(C)CC5)cc4)cc3)nc2N2C3CCC2COC3)C1
